Source: patent US7687535B2, “Substituted 3-sulfur indoles” (AstraZeneca AB, priority 2003, dated 2010)

Legend:
[1] = target: T1, rhCRTh2 (Homo sapiens, UniProt Q9Y5Y4); assay: Ligand Binding Assay ([3H]PGD2 SPA, HEK cell membranes); details: [3H]PGD2 binding to membranes of HEK cells expressing rhCRTh2/Gα16, SPA beads, 2 hours at room temperature
T1 construct: expressed in transfected cells; host or cells: HEK cells (membrane preparation)
T1 sequence (Q9Y5Y4 1-395): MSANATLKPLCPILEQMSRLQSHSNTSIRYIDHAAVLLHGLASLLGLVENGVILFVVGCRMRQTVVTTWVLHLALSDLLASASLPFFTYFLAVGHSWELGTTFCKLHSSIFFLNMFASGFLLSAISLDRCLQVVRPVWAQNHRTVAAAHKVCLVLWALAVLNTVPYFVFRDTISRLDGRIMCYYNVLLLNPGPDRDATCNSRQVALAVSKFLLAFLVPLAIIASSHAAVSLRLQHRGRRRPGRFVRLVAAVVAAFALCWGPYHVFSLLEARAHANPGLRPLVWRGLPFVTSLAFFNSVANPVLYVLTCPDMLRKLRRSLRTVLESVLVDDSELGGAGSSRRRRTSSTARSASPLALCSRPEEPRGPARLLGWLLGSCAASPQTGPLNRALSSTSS
Experimental: [^3H]PGD2 was purchased from Perkin Elmer Life Sciences with a specific activity of 100-210 Ci/mmol. All other chemicals were of analytical grade.
HEK cells expressing rhCRTh2/Gα16 were routinely maintained in DMEM containing 10% Foetal Bovine Serum (HyClone), 1 mg/ml geneticin, 2 mM L-glutamine and 1% non-essential amino acids. For the preparation of membranes, the adherent transfected HEK cells were grown to confluence in two layer tissue culture factories (Fisher, catalogue number TKT-170-070E). Maximal levels of receptor expression were induced by addition of […] sodium butyrate for the last 18 hours of culture. The adherent cells were washed once with phosphate buffered saline (PBS, 50 ml per cell factory) and detached by the addition of 50 ml per cell factory of ice-cold membrane homogenisation buffer [20 mM HEPES (pH 7.4), 0.1 mM dithiothreitol, 1 mM EDTA, 0.1 mM phenyl methyl sulphonyl fluoride and 100 μg/ml bacitracin]. […] The final pellet was re-suspended in 4 ml of membrane homogenisation buffer per cell factory used and the protein content determined. […]
All assays were performed in Corning clear bottomed, white 96-well NBS plates (Fisher). […] (The optimum coating concentrations were determined for each batch of membranes) The beads were pelleted by centrifugation (800×g for 7 minutes at 4° C.), washed once with assay buffer (50 mM HEPES pH 7.4 containing 5 mM magnesium chloride) and finally re-suspended in assay buffer at a bead concentration of 10 mg/ml.
Each assay contained 20 μl of 6.25 nM [^3H]PGD2, 20 μl membrane saturated SPA beads both in assay buffer and 10 μl of compound solution or 13,14-dihydro-15-keto prostaglandin D2 (DK-PGD2, for determination of non-specific binding, Cayman chemical company). […] The assay plate was incubated at room temperature for 2 hours and counted on a Wallac Microbeta liquid scintillation counter (1 minute per well).

Row | Compound | melting point [°C] | IC50 [1] [nM]
1 | COc1ccc(Sc2c(C)n(CC(=O)O)c3ccc(NS(C)(=O)=O)cc23)cc1 [Example 9, 3-[(4-Methoxyphenyl)thio]-2-methyl-5-[(methylsulfonyl)amino]-1H-indole-1-acetic acid] | 215 | –
2 | COc1cccc(Sc2c(C)n(CC(=O)O)c3ccc(NS(C)(=O)=O)cc23)c1 [Example 8, 3-[(3-Methoxyphenyl)thio]-2-methyl-5-[(methylsulfonyl)amino]-1H-indole-1-acetic acid] | 292 | –
3 | Cc1c(Sc2cccc(Cl)c2)c2cc(NS(C)(=O)=O)ccc2n1CC(=O)O [Example 6, 3-[(3-Chlorophenyl)thio]-2-methyl-5-[(methylsulfonyl)amino]-1H-indole-1-acetic acid] | 224 | –
4 | Cc1c(Sc2ccc(Cl)cc2)c2cc(NS(C)(=O)=O)ccc2n1CC(=O)O [Example 7, 3-[(4-Chlorophenyl)thio]-2-methyl-5-[(methylsulfonyl)amino]-1H-indole-1-acetic acid] | 214 | –
5 | Cc1c(Sc2cccc3cccnc23)c2cc(NS(C)(=O)=O)ccc2n1CC(=O)O [Example 11, 3-[(8-Quinolinyl)thio]-2-methyl-5-[(methylsulfonyl)amino]-1H-indole-1-acetic acid] | 257 | –
6 | Cc1c(Sc2ccccc2C(C)C)c2cc(NS(C)(=O)=O)ccc2n1CC(=O)O [Example 12, 3-[(2-(Methylethyl)phenyl)thio]-2-methyl-5-[(methylsulfonyl)amino]-1H-indole-1-acetic acid] | 160 | –
7 | Cc1c(Sc2ccccc2Cl)c2cc(NS(C)(=O)=O)ccc2n1CC(=O)O [Example 5, 3-[(2-Chlorophenyl)thio]-2-methyl-5-[(methylsulfonyl)amino]-1H-indole-1-acetic acid] | 212 | –
8 | Cc1c(Sc2ccccc2C(F)(F)F)c2cc(NS(C)(=O)=O)ccc2n1CC(=O)O [Example 10, 3-[(2-Trifluoromethylphenyl)thio]-2-methyl-5-[(methylsulfonyl)amino]-1H-indole-1-acetic acid] | 207 | –

Second part, the compound after the results:

Row | melting point [°C] | IC50 [1] [nM] | Compound
9 | 227 to 230 | – | Cc1c(Sc2ccccc2S(C)(=O)=O)c2cc(NS(C)(=O)=O)ccc2n1CC(=O)O [Example 31, 2-Methyl-5-[(methylsulfonyl)amino]-3-[[2-(methylsulfonyl)phenyl]thio]-1H-indole-1-acetic acid]
10 | 183 to 185 | – | Cc1c(Sc2ccc(Cl)cc2)c2c(NC(=O)C3CC3)cccc2n1CC(=O)O [Example 15]
11 | 233 to 236 | – | Cc1c(Sc2cccc(S(C)(=O)=O)c2)c2cc(NS(C)(=O)=O)ccc2n1CC(=O)O [Example 30, 2-Methyl-5-[(methylsulfonyl)amino]-3-[[3-(methylsulfonyl)phenyl]thio]-1H-indole-1-acetic acid]
12 | > 290 | – | Cc1c(Sc2ccc(S(C)(=O)=O)cc2)c2cc(-c3cncnc3)ccc2n1CC(=O)O [Example 32]
13 | 213 to 215 | – | Cc1c(Sc2ccc(Cl)cc2)c2c(NC(=O)c3ccccc3)cccc2n1CC(=O)O [Example 16, 4-(Benzoylamino)-3-[(4-chlorophenyl)thio]-2-methyl-1H-indole-1-acetic acid]
14 | – | 224 | CCN(C(C)=O)c1cccc2c1c(Sc1ccc(Cl)cc1)c(C)n2CC(=O)O [Example 14, 4-(Acetylethylamino)-3-[(4-chlorophenyl)thio]-2-methyl-1H-indole-1-acetic acid]
15 | – | 4.47 | Cc1c(Sc2ccc(S(C)(=O)=O)cc2)c2c(-c3cccs3)cccc2n1CC(=O)O [Example 26, 2-Methyl-3-[[4-(methylsulfonyl)phenyl]thio]-4-(2-thiophenyl)-1H-indole-1-acetic acid]
16 | – | 0.398 | Cc1noc(C)c1-c1ccc2c(c1)c(Sc1ccc(S(C)(=O)=O)cc1)c(C)n2CC(=O)O [Example 34, 5-(3,5-Dimethyl-4-isoxazolyl)-2-methyl-3-[[4-(methylsulfonyl)phenyl]thio]-1H-indole-1-acetic acid]
